Results: patent US6875761B2 (Eisai Co., Ltd., priority 1997, dated 2005)
Counter-ions that a name gives are not always drawn.

Experiments:
serotonin 1A receptor = biological target: T1, serotonin 1A receptor (Rattus norvegicus, UniProt P19327); assay: Binding test on [3H] 8-hydroxy-dipropylaminotetralin, hippocampus receptor fraction; set-up: species or system SD rats; settings: rat hippocampus receptor fraction, 0.5 nM [3H] 8-OH-DPAT, room temperature 30 min; read-out: 5HT1
T1 construct: To the receptor fraction of the hippocampus were added a test compound and 0.5 nM of [^3H]; 8-hydroxy-dipropylaminotetralin; from tissue; host or cells: rat hippocampus membrane fraction
T1 sequence (P19327 1-422): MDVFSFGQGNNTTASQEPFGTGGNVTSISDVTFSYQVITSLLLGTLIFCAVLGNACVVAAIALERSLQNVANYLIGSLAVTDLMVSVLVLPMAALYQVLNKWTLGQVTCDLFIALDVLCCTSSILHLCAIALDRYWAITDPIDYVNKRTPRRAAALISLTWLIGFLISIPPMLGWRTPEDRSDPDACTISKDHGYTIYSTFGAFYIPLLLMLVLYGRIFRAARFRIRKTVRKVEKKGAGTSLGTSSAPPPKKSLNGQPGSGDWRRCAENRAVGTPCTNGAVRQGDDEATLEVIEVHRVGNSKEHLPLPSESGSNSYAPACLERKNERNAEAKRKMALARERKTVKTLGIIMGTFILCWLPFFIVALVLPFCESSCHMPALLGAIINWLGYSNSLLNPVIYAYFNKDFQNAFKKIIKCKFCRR

serotonin 2 receptor = biological target: T2, serotonin 2 receptor (Rattus norvegicus, UniProt P14842); assay: Binding test on [3H] ketanserin, cerebral cortex receptor fraction; set-up: species or system SD rats; settings: 0.3 nM [3H] ketanserin, 37° C. 15 min, read-out: 5HT2
T2 construct: To the receptor fraction of the cerebral cortex were added a test compound and 0.3 nM of [^3H] ketanserin; from tissue; host or cells: rat cerebral cortex membrane fraction
T2 sequence (P14842 whole entry): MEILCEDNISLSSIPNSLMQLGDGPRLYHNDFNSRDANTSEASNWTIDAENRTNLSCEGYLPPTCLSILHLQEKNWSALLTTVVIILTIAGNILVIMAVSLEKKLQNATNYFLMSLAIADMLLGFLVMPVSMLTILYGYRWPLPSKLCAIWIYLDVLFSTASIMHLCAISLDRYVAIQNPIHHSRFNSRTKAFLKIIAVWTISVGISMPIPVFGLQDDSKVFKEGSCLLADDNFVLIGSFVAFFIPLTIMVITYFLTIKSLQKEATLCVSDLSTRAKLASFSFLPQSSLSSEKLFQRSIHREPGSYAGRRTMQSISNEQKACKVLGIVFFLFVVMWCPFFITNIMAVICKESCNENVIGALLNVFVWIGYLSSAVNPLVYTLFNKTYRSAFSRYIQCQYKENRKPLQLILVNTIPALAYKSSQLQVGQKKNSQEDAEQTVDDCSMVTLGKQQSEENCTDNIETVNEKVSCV

Row | Ki (serotonin 1A receptor) [nM] | Ki (serotonin 2 receptor) [nM] | Structure (SMILES)
1 | 23 | 35 | CCN1CCN(c2nc(-c3ccc(OC)c(OC)c3)cc3ccccc23)CC1 [Example 14, 3-(3,4-dimethoxyphenyl)-1-(4-ethylpiperazin-1-yl)isoquinoline Dihydrochloride]
2 | 16.9 | 17 | CCNC(=O)Cc1ccc(-c2cc3ccccc3c(N3CCN(CC)CC3)n2)cc1 [Example 87, 3-(4-Ethylaminocarbonylmethylphenyl)-1-(4-ethylpiperazin-1-yl)isoquinoline Hydrochloride]
3 | 29.7 | 4.9 | CCN1CCN(c2nc(-c3ccc(OCCCc4cccnc4)cc3)cc3ccccc23)CC1 [Example 157, 3-[4-[3-(3-pyridyl)propoxy]phenyl]-1-(4-ethylpiperazin-1-yl)isoquinoline hydrochloride]
4 | 18.7 | 9.7 | CCC(=O)NCc1ccc(-c2cc3ccccc3c(N3CCN(CC)CC3)n2)cc1 [Example 85, 3-(4-Ethylcarbonylaminomethylphenyl)-1-(4-ethylpiperazin-1-yl)isoquinoline Hydrochloride]
5 | 10.7 | 0.8 | CCN1CCN(c2nc(-c3ccc(N4CCSCC4)nc3)cc3ccccc23)CC1 [Example 150, 1-(4-ethylpiperazin-1-yl)-3-[2-(thiomorpholin-4-yl)pyridin-5-yl]isoquinoline trihydrochloride]
6 | 6.89 | 15.2 | CCN1CCN(c2nc(-c3ccc(S(=O)(=O)CC)cc3)cc3ccsc23)CC1 [Example 450, 7-(4-ethylpiperazin-1-yl)-5-(4-ethanesulfonylphenyl)thieno[2,3-c]pyridine dihydrochloride]
7 | 8.64 | 26 | CCN1CCN(c2nc(-c3ccc(CC(C)O)cc3)cc3ccsc23)CC1 (centres unmarked) [Example 436, 7-(4-ethylpiperazin-1-yl)-5-[4-(2-hydroxypropyl)phenyl]thieno[2,3-c]pyridine dihydrochloride]
8 | 75.4 | 93.1 | CCN1CCN(c2nc(-c3ccc(C(O)C4CCCC4)cc3)cc3ccsc23)CC1 (centres unmarked) [Example 458, 7-(4-ethylpiperazin-1-yl)-5-[4-(cyclopentylhydroxymethyl)phenyl]thieno[2,3-c]pyridine dihydrochloride]
9 | 18.8 | 1.07 | CCN1CCN(c2nc(-c3ccc(O[C@@H](C)CO)cc3)cc3ccccc23)CC1 [Example 404, 1-(4-ethylpiperazin-1-yl)-3-[4-(2-hydroxy-1-methylethoxy)phenyl]isoquinoline Dihydrochloride]
10 | 62.1 | 4.9 | CCN1CCN(c2nc(-c3ccc(OCCCSC)cc3)cc3ccccc23)CC1 [Example 54, 3-[4-(3-Methylthiopropoxy)Phenyl]-1-(4-Ethylpiperazin-1-Yl)Isoquinoline Hydrochloride]
11 | 10.3 | 89.9 | CCN1CCN(c2nc(C(=O)c3ccccc3OC)cc3ccccc23)CC1 [Example 111, 3-(2-Methoxyphenylcarbonyl)-1-(4-ethylpiperazin-1-yl)isoquinoline Oxalate]
12 | 24 | 43.8 | CCCNC(=O)c1ccc(-c2cc3ccsc3c(N3CCN(CC)CC3)n2)cc1 [Example 449, 7-(4-ethylpiperazin-1-yl)-5-[4-(N-propylcarbamoyl)phenyl]thieno[2,3-c]pyridine dihydrochloride]
13 | 2.1 | 24.2 | CCN1CCN(c2nc(-c3ccc(S(=O)(=O)N4CCCC4)cc3)cc3ccccc23)CC1 [Example 356, 1-(4-ethylpiperazin-1-yl)-3-[4-(pyrrolidin-1-yl)sulfonylphenyl]isoquinoline dihydrochloride]
14 | 5.8 | 23 | CCN1CCN(c2nc(-c3ccc(CCNS(=O)(=O)CC)cc3)cc3ccccc23)CC1 [Example 79, 3-(4-Ethylsulfonylaminoethylphenyl)-1-(4-Ethylpiperazin-1-Yl)Isoquinoline Hydrochloride]
15 | 23.7 | 2.1 | CCN1CCN(c2nc(-c3ccc([C@@H]4C[C@@H](O)CCO4)cc3)cc3ccccc23)CC1 (relative stereo) [Example 402, 1-(4-Ethylpiperazin-1-yl)-3-[4-(trans-4-Hydroxytetrahydropyran-2-yl)Phenyl]Isoquinoline Dihydrochloride]
16 | 3.3 | 15.2 | CCOCCCc1ccc(-c2cc3ccccc3c(N3CCN(CC)CC3)n2)cn1 [Example 142, 1-(1-Ethylpiperazin-4-yl)-3-[2-(3-Ethoxypropyl)Pyridin-5-yl]Isoquinoline Oxalate]
17 | 27.3 | 0.1 | CCCNC(=O)c1ccc(-c2cc3ccccc3c(N3CCN(CC)CC3)n2)cc1F [Example 384, 1-(4-Ethylpiperazin-1-yl)-3-[4-(N-Propylcarbamoyl)-3-Fluorophenyl]Isoquinoline Dihydrochloride]
18 | 0.53 | 30 | CCN1CCN(c2nc(-c3ccc(O[C@H](C)CO)cc3)cc3ccoc23)CC1 [Example 302, 7-(1-ethylpiperazin-4-yl)-5-{4-[(R)-2-hydroxy-1-methylethoxy]phenyl}furo[2,3-c]pyridine dihydrochloride]
19 | 108 | 60.1 | CCN1CCN(c2nc(-c3ccc(OC)cc3)cc3ccsc23)CC1 [Example 459, 7-(4-ethylpiperazin-1-yl)-5-(4-methoxyphenyl)thieno[2,3-c]pyridine dihydrochloride]
20 | 12.7 | 5.6 | CCN1CCN(c2nc(-c3ccc(N4CCN(C(C)=O)CC4)cc3)cc3ccccc23)CC1 [Example 100, 3-[4-(4-Acetylpiperazin-1-yl)phenyl]-1-(4-ethylpiperazin-1-yl)isoquinoline Trihydrochloride]
21 | 10.7 | 6.3 | CCN1CCN(c2nc(-c3ccc(CCCO)c(Cl)c3)cc3ccccc23)CC1 [Example 30, 3-[3-chloro-4-(3-hydroxypropyl)phenyl]-1-(4-ethylpiperazin-1-yl)isoquinoline hydrochloride]
22 | 20 | 4.34 | CCN1CCN(c2nc(-c3ccc(C4=CCOCC4)nc3)cc3ccccc23)CC1 [Example 155, 3-[2-(5,6-dihydro-2H-pyran-4-yl)pyridin-5-yl]-1-(4-ethylpiperazin-1-yl)isoquinoline oxalate]
23 | 1.6 | 8.8 | CCN1CCN(c2nc(-c3ccc(N4CCC(CO)CC4)nc3)cc3ccccc23)CC1 [Example 154, 1-(4-ethylpiperazin-1-yl)-3-[2-(4-hydroxymethylpiperidin-1-yl)pyridin-5-yl]isoquinoline trihydrochloride]
24 | 5.32 | 175 | CCN1CCN(c2nc(-c3ccc(OCC4OCCO4)cc3)cc3sccc23)CC1 [Example 460, 4-(4-ethylpiperazin-1-yl)-6-[4-(1,3-dioxolan-2-yl)methoxyphenyl]thieno[3,2-c]pyridine oxalate]
25 | 49.8 | 1 | CCN1CCN(c2nc(-c3ccc(C#CC(C)(C)O)cc3)cc3sccc23)CC1 [Example 466, 4-(4-ethylpiperazin-1-yl)-6-[4-(3-hydroxy-3-methyl-1-butynyl)phenyl]thieno[3,2-c]pyridine oxalate]
26 | 60.1 | 33.5 | CCN1CCN(c2nc(-c3ccc(N)cc3)cc3ccccc23)CC1 [Example 65, 3-(4-Aminophenyl)-1-(4-Ethylpiperazin-1-Yl)Isoquinoline Hydrochloride]
27 | 103 | 1.87 | CCN1CCN(c2nc(-c3ccc(OCC#N)cc3)cc3ccccc23)CC1 [Example 51, 3-(4-Cyanomethoxyphenyl)-1-(4-Ethylpiperazin-1-Yl)Isoquinoline Hydrochloride]

Row | Structure (SMILES) | Ki (serotonin 1A receptor) [nM] | Ki (serotonin 2 receptor) [nM]
28 | CCN1CCN(c2nc(-c3ccc(OCCO)nc3)cc3ccccc23)CC1 [Example 125, 1-(1-Ethylpiperazin-4-yl)-3-[2-(2-Hydroxyethoxy)Pyridin-5-yl]Isoquinoline] | 27.1 | 6.9
29 | CCN1CCN(c2nc(-c3ccc(CCCF)cn3)cc3ccccc23)CC1 [Example 132, 1-(1-Ethylpiperazin-4-yl)-3-[5-(3-Fluoropropyl)Pyridin-2-yl)Isoquinoline] | 1.5 | 23.4
30 | CCCN(C)C(=O)c1ccc(-c2cc3ccccc3c(N3CCN(CC)CC3)n2)cc1 [Example 381] | 11.1 | 27.3
31 | CCN1CCN(c2nc(-c3ccc(S(=O)(=O)N4CCS(=O)(=O)CC4)cc3)cc3ccccc23)CC1 [Example 77, 3-[(1,1-Dioxythiomorpholinyl)Sulfonylphenyl]-1-(4-Ethylpiperazin-1-Yl)Isoquinoline Hydrochloride] | 13.6 | 90.5
32 | CCN1CCN(c2nc(-c3ccc(OCC(C)O)cc3)cc3sccc23)CC1 (centres unmarked) [Example 287, 4-(4-ethylpiperazin-1-yl)-6-[4-(2-hydroxypropoxy)phenyl]thieno[3,2-c]pyridine] | 27.9 | 0.87
33 | CCN1CCN(c2nc(-c3ccc(OC)nc3)cc3ccccc23)CC1 [Example 344, 1-(4-ethylpiperazin-1-yl)-3-(2-methoxypyridin-5-yl)isoquinoline] | 10.7 | 35.9
34 | CCN1CCN(c2nc(C#Cc3ncccc3OCCO)cc3ccccc23)CC1 [Example 188, 1-(1-Ethylpiperazin-4-Yl)-3-[3-(2-Hydroxyethoxy)-2-Pyridyl]Ethynylisoquinoline] | 4.47 | 107
